According to article PMC9841533, “Microtubule-Stabilizing 1,2,4-Triazolo[1,5-a]pyrimidines as Candidate Therapeutics for Neurodegenerative Disease: Matched Molecular Pair Analyses and Computational Studies Reveal New Structure–Activity Insights” (Journal of Medicinal Chemistry, 2022):
Where two headings read alike, the source gives them in different places. Blank lines part the entries; values can stand above or below the compound they belong to.

Assays:
[1] = test system: total tubulin levels in HeLa cells; set-up: method as in earlier work; details: 16 h incubation, ref 13 (Yang et al.); cited from earlier work
[2] = test system: acetylated α-tubulin (AcTub) levels in QBI293 cells; set-up: method as in PMID 26980057, PMID 33411523; details: activity reported in previous studies; cited from earlier work
[3] = test system: acetylated α-tubulin (AcTub) levels in QBI293 cells; assay: QBI293 cell assay of MT stabilization: acetylated α-tubulin ELISA; format: cell-based
In short: (§1)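 AcTub and α-Tub were quantified by ELISA in whole-cell extracts normalized by BCA protein and expressed relative to vehicle. AcTub changes were also scaled to a 100 nM reference stabilizer control.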

[4] = test system: de-tyrosinated α-tubulin (GluTub) in brain of WT mice; assay: Brain PD: Glu-tubulin in brain tissue after compound treatment; format: in vivo, mouse; details: WT CD-1 mice, 1 mg/kg i.p. once daily for two consecutive days
Experimental: Finally, to evaluate target engagement in the CNS, PD studies were conducted to determine compound-dependent elevations in the stable MT marker, de-tyrosinated α-tubulin (GluTub), in brain homogenates from compound-treated WT mice.
All animal protocols were approved by the University of Pennsylvania Institutional Animal Care and Use Committee (IACUC). […] Compounds were diluted from 20 or 40 mM DMSO stock solutions into 30% Kolliphor EL (Sigma-Aldrich) phosphate-buffered saline, pH 7.4. After 4 h following the second injection, mice were euthanized and cortices and hippocampi were isolated from each brain and placed in 0.2 mL of ice-cold radioimmunoprecipitation assay (RIPA) buffer (50 mM Tris, 150 mM NaCl, 5 mM EDTA, 0.5% sodium deoxycholate, 1% NP-40, 0.1% sodium dodecyl sulfate (SDS), pH 8.0) containing protease inhibitor (PI) cocktail (Sigma-Aldrich), 1 mM phenylmethylsulfonyl fluoride (PMSF) (Sigma-Aldrich), and 3 μM trichostatin A (TSA) (Sigma-Aldrich). The brain samples were homogenized with a handheld battery-operated mixer and subsequently sonicated. After centrifugation at 100,000g for 30 min at 4 °C, supernatant samples were transferred to a new tube and the pellets were resuspended in 0.15 mL of RIPA buffer and again homogenized, sonicated, and centrifuged. The supernatant from the second centrifugation was pooled with that from the first. The combined supernatant samples were assessed for protein concentration using a BCA assay (Thermo Fisher Scientific), and equal protein amounts from each brain sample underwent separation by 10% sodium dodecyl sulfate polyacrylamide gel electrophoresis (SDS-PAGE) followed by transfer onto nitrocellulose membranes essentially as previously described.[11] […] Incubation with infrared dye-conjugated secondary antibodies and subsequent imaging and quantification of the blots on the Odyssey imaging system were as described.[11]

[5] = Plasma pharmacokinetics in CD-1 mice; format: in vivo, mouse; details: male, mouse
Experimental: Studies to determine the pharmacokinetic properties of compounds 53 and 60 were conducted at Touchstone Biosciences (Plymouth Meeting, PA). For the determination of plasma pharmacokinetics, three male CD-1 mice (2–3 months of age) were injected i.v. (tail vein) with test compound at a dose of 5 mg/kg in a solution of 10% DMSO, 40% polyethylene glycol, and 50% water, and another three male CD-1 mice received oral gavage dosing of 60 formulated as above at a dose of 20 mg/kg. Blood samples were collected from the saphenous or submandibular veins at multiple time points after dosing and collected in Greiner MiniCollect K2EDTA tubes. Compound levels in plasma were determined by LC-MS/MS, using protocols similar to those previously described.[16],[22]

[6] = test system: total α-tubulin (α-Tub) levels in QBI293 cells; assay: QBI293 cell assay: total α-tubulin ELISA; format: cell-based
In short: as §1

[7] = Brain-to-plasma ratio in mice; format: in vivo; details: mouse, ip, 1 h post-administration, i.p. 1.5 mg/kg, read-out: brain-to-plasma ratio (B/P)
[8] = Resazurin cell viability assay, QBI293; format: cell-based; details: human, QBI293 cells, three biological replicates, read-out: QBI293 CC50 ± SD
Experimental: (§2) Cell Culture. QBI293 and HeLa cells were cultured in DMEM supplemented with 10% heat-
(§3) inactivated FBS and 1% penicillin-streptomycin. Cells were grown in T175 cell culture flasks maintained
(§4) at 37 ℃ in 5% CO2 and sub-c ultured when at 60-8 0% cell confluence.
(§5) Resazurin Cell Viability Assay. Cytotoxicity in QBI293 and HeLa cells was measured using the
(§6) resazurin cell viability assay.1 Test compounds were serially diluted in DMSO and added to 96-well
(§7) polystyrene assay plates to give final assay concentrations ranging from 100 nM to 4000 nM (1 µL; 1%
(§8) total DMSO). Fresh medium was added to the assay plate (49 µL/well). QBI293 or HeLa cells were
(§9) cells/well. Assay plates were incubated at 37 °C and 5% CO2 for 48 h, followed by addition of 20 µL 0.5
(§10) mM resazurin (Alfa Aesar, Cat. B21187) in PBS to each well. Assay plates were incubated in the dark for
(§11) (1 picture or pasted object on this page, not shown here)
(§12) 4 h at 37 °C. Fluorescence was measured at 531 nm and 595 nm excitation and emission wavelengths,
(§13) respectively, using a 2104 EnVision® multilabel plate reader. The viability of each well was normalized to
(§14) positive and negative controls in each assay plate. Dose-response curves were generated and CC50 values
(§15) calculated with GraphPad Prism, version 9.3 (San Diego, CA) using a sigmoidal four parameter logistic
(§16) curve. The means ± standard deviations from three biological replicates are shown.
(§17) (1) O'Brien, J.; Wilson, I.; Orton, T.; Pognan, F. Investigation of the Alamar Blue (resazurin) fluorescent
(§18) dye for the assessment of mammalian cell cytotoxicity. Eur. J. Biochem. 2000, 267 (17), 5421-5426.

[9] = Resazurin cell viability assay, HeLa; format: cell-based; details: human, HeLa cells, three biological replicates, read-out: HeLa CC50 ± SD
Experimental: as §2, §3, §4, §5, §6, §7, §8, §9, §10, §11, §12, §13, §14, §15, §16, §17, §18

SMILES: C[C@H](Nc1c(-c2c(F)cc(F)cc2F)c(Cl)nc2ncnn12)C(F)(F)F [Compound 2]
total tubulin levels [1]: reduction in total tubulin levels
Class (cellular phenotype) [2]: I

Vd at 24 h ([5]; iv, i.v. 5 mg/kg): 4.8 L/kg
clearance at 24 h ([5]; iv, i.v. 5 mg/kg): 8.2 mL/min/kg
half-life ([5]; iv, i.v. 5 mg/kg, read-out: half-life (T1/2)): > 6 h
half-life at 24 h ([5]; iv, i.v. 5 mg/kg, read-out: half-life (T1/2) (converted)): 6.8 h
bioavailability ([5]; oral, 5 mg/kg i.v. and 20 mg/kg p.o., read-out: oral bioavailability (F)): > 50%
bioavailability at 24 h ([5]; po, 5 mg/kg i.v. and 20 mg/kg p.o., read-out: oral bioavailability (F)): 56%
Kp at 1 h [7]: ~0.5
SMILES: C[C@@H](Nc1c(-c2c(F)cc(C#CCCN(C)C)cc2F)c(Cl)nc2ncnn12)C(C)(C)C [Compound 60, (R)-5-Chloro-6-(4-(4-(dimethylamino)but-1-yn-1-yl)-2,6-difluorophenyl)-N-(3,3-dimethylbutan-2-yl)-[1,2,4]triazolo[1,5-a]pyrimidin-7-amine]
AcTub (1 uM - normalized) ([3]; 1 uM compound, normalized): 1.75
AcTub (10 uM - normalized) ([3]; 10 uM compound, normalized): 1.28
fold induction at 1 µM ([3]; 4 h, 1 uM compound, read-out: AcTub (1uM)): 9.5
fold induction at 10 µM ([3]; 4 h, 10 uM compound, read-out: AcTub (10 uM)): 6.94
AcTub 1 μM, fold-change compared to positive control compound 5 (100 nM) (in parentheses) ([3]; 4 h incubation, 1 μM): 1.75 fold-change
fold induction at 1 µM ([3]; 4 h incubation, 1 μM, read-out: AcTub 1 μM, fold-change compared to vehicle (DMSO)-treated cells): 9.5 ± 0.34
AcTub 10 μM, fold-change compared to positive control compound 5 (100 nM) (in parentheses) ([3]; 4 h incubation, 10 μM): 1.28 fold-change
fold induction at 10 µM ([3]; 4 h incubation, 10 μM, read-out: AcTub 10 μM, fold-change compared to vehicle (DMSO)-treated cells): 6.94 ± 0.22
brain GluTub (GluTub-to-total α-Tub ratio) relative to vehicle-treated mice [4]: significant elevations in brain GluTub
fold induction at 1 µM ([6]; 4 h, 1 uM compound, read-out: AlfaTub (1uM)): 0.94
fold induction at 10 µM ([6]; 4 h, 10 uM compound, read-out: AlfaTub (10 uM)): 0.98
fold induction at 1 µM ([6]; 4 h incubation, 1 μM, read-out: α-Tub 1 μM, fold-change compared to vehicle (DMSO)-treated cells): 0.94 ± 0.01
fold induction at 10 µM ([6]; 4 h incubation, 10 μM, read-out: α-Tub 10 μM, fold-change compared to vehicle (DMSO)-treated cells): 0.98 ± 0.01

SMILES: C[C@@H](Nc1c(-c2c(F)cc(C#N)cc2F)c(Cl)nc2ncnn12)C(C)(C)C [Compound 68]
Class (cellular phenotype) [2]: I
brain GluTub (GluTub-to-total α-Tub ratio) relative to vehicle-treated mice [4]: significant elevations in brain GluTub
CC50 at 48 h [8]: 30.7 ± 5.2 nM
CC50 at 48 h [9]: 41.7 ± 3 nM
